This note sets out measurements from US9133137B2, “Derivatives of gefitinib” (Concert Pharmaceuticals, Inc., priority 2008, dated 2015).

This data set can be described thus: Metabolic stability in human liver microsomes (in vitro t1/2). The data set is classed as in vitro ADME. Particulars: pooled human liver microsomes, pooled human liver microsomes 3.0 mg/mL, test compound 0.5 μM, NADPH, 37° C. As to the method:
Microsomal Assay: Human liver microsomes (20 mg/mL) were obtained from Xenotech, LLC (Lenexa, Kans.). βnicotinamide adenine dinucleotide phosphate, reduced form (NADPH), magnesium chloride (MgCl2), and dimethyl sulfoxide (DMSO) were purchased from SigmaAldrich. The incubation mixtures were prepared according to Table 2:
Determination of Metabolic Stability: Two aliquots of this reaction mixture were used for a compound of this invention. The aliquots were incubated in a shaking water bath at 37° C. for 3 minutes. The test compound was then added into each aliquot at a final concentration of 0.5 μM. The reaction was initiated by the addition of cofactor (NADPH) into one aliquot (the other aliquot lacking NADPH served as the negative control). Both aliquots were then incubated in a shaking water bath at 37° C. Fifty microliters (50 μL) of the incubation mixtures were withdrawn in triplicate from each aliquot at 0, 5, 10, 20, and 30 minutes and combined with 50 μL of ice-cold acetonitrile to terminate the reaction. The same procedure was followed for gefitinib and 7-ethoxycoumarin, the positive control. Testing was done in triplicate.
Data analysis: The in vitro half-lives (t1/2s) for test compounds were calculated from the slopes of the linear regression of % parent remaining (ln) vs incubation time relationship using the following formula: in vitro t1/2=0.693/k, where k=[slope of linear regression of % parent remaining(ln)vs incubation time] Data analysis was performed using Microsoft Excel Software.
The metabolic stability of compounds of Formula A or I was tested using pooled liver microsomal incubations. Full scan LCMS analysis was then performed to detect major metabolites. Samples of the test compounds, exposed to pooled human liver microsomes, were analyzed using HPLCMS (or MS/MS) detection. For determining metabolic stability, multiple reaction monitoring (MRM) was used to measure the disappearance of the test compounds. For metabolite detection, Q1 full scans were used as survey scans to detect the major metabolites.
On the technique in general: Microsomes from liver hold many membrane-bound enzymes, among them those of drug oxidation.

The mark [1] stands for this setting: Experiment No. 1, read-out: t½ (min), Experiment No. 1.
Setting [2] is: Experiment No. 2, read-out: t½ (min), Experiment No. 2.
The mark [3] stands for this setting: Experiment No. 3, read-out: t½ (min), Experiment No. 3.
Where [4] appears, read: average of experiments 1-3, read-out: t½ (min), Ave.

Like-named read-outs stand apart in the source and are kept apart here.

With `[2H]C([2H])([2H])Oc1cc2ncnc(Nc3ccc(F)c(Cl)c3)c2cc1OC([2H])([2H])C([2H])([2H])C([2H])([2H])N1CCOCC1` [Compound 102, N-(3-Chloro-4-fluorophenyl)-7-(methoxy-d3)-6-(3-morpholino(propoxy-d6))quinazolin-4-amine], the half-life at 0.5 μM is, setting by setting: under setting [1], 22.5 min; under setting [2], 20.8 min; under setting [3], 21.8 min; under setting [4], 21.7 min.
For `COc1cc2ncnc(Nc3ccc(F)c(Cl)c3)c2cc1OCCCN1CCOCC1` [Gefitinib, (3-chloro-4-fluoro-phenyl)-[7-methoxy-6-(3-morpholin-4-yl-propoxy)-quinazolin-4-yl]-amine] the same measures were 19.4 min, 17.6 min, 19.8 min and 18.9 min.
For `[2H]C([2H])([2H])Oc1cc2ncnc(Nc3ccc(F)c(Cl)c3)c2cc1OC([2H])([2H])C([2H])([2H])C([2H])([2H])N1C([2H])([2H])C([2H])([2H])OC([2H])([2H])C1([2H])[2H]` [Compound 101, N-(3-Chloro-4-fluorophenyl)-7-(methoxy-d3)-6-(3-(morpholino-d8)propoxy-d6)quinazolin-4-amine] the same measures were 24.3 min, 23.8 min, 23.1 min and 23.7 min.
For `[2H]C([2H])([2H])Oc1cc2ncnc(Nc3ccc(F)c(Cl)c3)c2cc1OCCCN1CCOCC1` [Compound 104, N-(3-Chloro-4-fluorophenyl)-7-(methoxy-d3)-6-(3-morpholinopropoxy)quinazolin-4-amine] the same measures were 22.5 min, 20.8 min, 21.8 min and 21.7 min.
